Tests used:
Type in all cases: cell-based, human
[1] = tested on: SHSY5Y cells; experiment: Flow cytometric analysis of apoptosis in SHSY5Y cells; settings: 5 mM ALA for 72 hours
[2] = tested on: C80 cells; experiment: Mitochondrial ATP levels in C80 cells; settings: FLVCR1a-silenced vs scramble shRNA C80 cells
Description: (A, C, E) Activities of the mitochondrial electron transport chain complexes I-IV. FLVCR1a-silenced Caco2 (A), SKCO1 (C) or C80 cells (E) are compared to cells expressing a scramble shRNA. Results were expressed as nmol NAD^+/min/mg mitochondrial protein for complex I, nmol reduced cytochrome c/min/mg mitochondrial protein for complexes II-III, nmol oxidized cytochrome c/min/mg mitochondrial protein for complex IV. Data represent mean±SEM, n=3. For statistical analyses, an unpaired Student's t-test was used; *=p<0.05, **=p<0.01. (B, D, F) Mitochondrial ATP levels measured by a bioluminescent assay kit. FLVCR1a-silenced Caco2 (B), SKCO1 (D) or C80 cells (F) are compared to cells expressing a scramble shRNA. Results are expressed as nmol/mg mitochondrial proteins. […] Results were expressed as nmol NAD^+/min/mg mitochondrial protein for complex I, nmol reduced cytochrome c/min/mg mitochondrial protein for complexes II-III, nmol oxidized cytochrome c/min/mg mitochondrial protein for complex IV. […] (H) Mitochondrial ATP levels measured by a bioluminescent assay kit in Caco2 cells overexpressing FLVCR1a (indicated as FLVCR1a+) compared to cells stably transduced with an empty vector. Results are expressed as nmol/mg mitochondrial proteins. […]
ATP levels in mitochondria extracts were assessed by the ATP Bioluminescent Assay Kit (Sigma-Aldrich, St. Louis, MO USA, catalog n° FLAA). […]

[3] = tested on: BTECs; experiment: Heme content in BTECs; settings: FLVCR1a knockdown vs scramble shRNA BTECs
Description: (A) Frequency (%) of patient tumors with overexpression of FLVCR1 compared to their matched normal tissues across multiple cancer types. The number of patients showing tumor FLVCR1 overexpression relative to the total number of patients examined are indicated in the plot. Data derive from the BioXpress (Wan et al., 2015). […] Transcript abundance, normalized to beta-actin mRNA expression (for SHSY-5Y cells) or to 18s mRNA (for BTECs), is expressed as a fold increase over a calibrator sample. Data represent mean±SEM, n=4. For statistical analyses, an unpaired Student's t-test was used; ***p<0.001. (C, E) Western blot analysis of FLVCR1a expression in SHSY-5Y cells (C) and BTECs (E). […] Band intensities were measured by densitometry and normalized to vinculin expression. […] Values are expressed as pmol heme/mg protein. […] Values are expressed as pmol heme/mg protein. […]
Intracellular heme concentration was measured using a fluorescence assay, as previously reported (Sinclair et al., 2001). […] Fluorescence (wavelength: excitation 405 nm-emission 660-720 nm) of the resultant protoporphyrin was assessed on a Glomax Multi Detection System (Promega Corporation, Madison WI, USA).
The endogenous protoporphyrin content (measured in parallel unheated samples in oxalic acid) was subtracted. […] Results were expressed as relative fluorescence intensity or, alternatively, as pmol of heme/mg total protein.

[4] = tested on: Caco2 cells; experiment: Proliferation of Caco2 cells (crystal violet staining, cell viability); settings: FLVCR1a-silenced vs scramble shRNA Caco2 cells
Description: (A) Proliferation of Caco2 cells assessed by crystal violet staining at the indicated days; bar=1000 μm. […] Staining quantification is reported in the bar graph as percentage of crystal violet stained area. Data represent mean±SEM, n=4. For statistical analyses, a two-way analysis of variance was used, followed by the Bonferroni correction for multiple group comparisons; *=p<0.05, ***=p<0.001. (B) Caco2 cells viability the day of plating (day 0) and three days after plaiting (day 3). The measure is considered a readout of cell proliferation. […] Data represent mean±SEM, n=3 wells. For statistical analyses, a two-way analysis of variance was used, followed by the Bonferroni correction for multiple group comparisons; *=p<0.05, **=p<0.01. (C, D, E) Representative flow cytometric analyses of apoptosis in synchronized Caco2 (C), SKCO1 (D) and C80 (E) cells. […]
To assess cell viability, the CellTiter-Fluor Cell Viability Assay (Promega, Madison, WI USA, catalog n°G6080) was used. […] The detection of cell viability at different consecutive time points was regarded as a readout of cell proliferation.
For crystal violet staining, 1*10^4 Caco2 cells were seeded in 6-well plates. […] Stained area was assessed by analyses of four representative photos per day for each triplicate using Fiji open source software (Schindelin et al., 2012) (http://fiji.sc/ RRID:SCR_002285).

`Cl.NCC(=O)CCC(=O)O` [5-ALA, 5-Aminolevulinic acid hydrochloride] was tested, and the apoptosis [1] was “increased apoptosis”.

“FLVCR1a shRNA: shRNA specifically down-regulating FLVCR1a without targeting FLVCR1b; pLKO.1 lentiviral clone TRCN0000059599, antisense SEQ ID No.: 2 (antisense TTGCTAATGATGCTGTACTGG; sense CCAGTACAGCATCATTAGCAA)” was tested, and the “mitochondrial ATP levels” value [2] was “increased”, the “heme levels at the steady state” value [3] was “increased heme levels” and the cell proliferation [4] was “proliferated more slowly”.
